Measurements reported in patent publication US12318487B2, “Solid tablet dosage form of ridinilazole” (c/o Summit (Oxford) Limited, priority 2021, dated 2025).

What was measured:
[1] = BCS classification and solubility of drug substance; type: physicochemical; settings: across physiologically relevant pH
Text: Ridinilazole is a BCS class IV, orally administered and locally acting (lower intestines) GI antibiotic with minimal systemic exposure and very low solubility across physiologically relevant pH. BCS class IV drugs are known to present particular formulation challenges, especially in the case of oral formulations (see e.g. Ghadi and Dand (2017) BCS class IV drugs: Highly notorious candidates for formulation development Journal of Controlled Release, 248: 71-95).

[2] = tested on: Clostridioides difficile infection (CDI); settings: Phase 2 trial, CDI recurrence; cited from earlier work
[3] = Crystal agglomerate particle sizing by laser diffraction (Malvern dry dispersion); type: physicochemical
Procedure: This was carried out by laser diffraction using a Malvern 2000 dry disperser. The settings used for sizing are set out below: [table] Sample preparation—Triplicate Invert sample jar or vial 10 times. Weigh approximately 2 g of sample and transfer to the sample tray. Evenly disperse sample in sample tray.

[4] = XRPD limit test for crystal form conversion (Forms D and N) in packaged tablet; type: physicochemical; settings: proposed storage condition, proposed commercial packaging
Text: The stability of the ridinilazole crystal form within the tablet as packaged in the intended commercial packaging configurations. Assessments have been made using a validated discriminatory X-ray powder diffraction (XRPD) method developed as a limit test for detecting Forms D and N within the drug product.

[5] = Table 5, input drug substance at limits of specification, listed as 3
[6] = Table 6, micronized ridinilazole tetrahydrate, additional studies, listed as 3
[7] = Table 6, micronized ridinilazole tetrahydrate, additional studies, listed as 5
[8] = Table 5, input drug substance at limits of specification, listed as 2
[9] = Table 6, micronized ridinilazole tetrahydrate, additional studies, listed as 2
[10] = Table 5, input drug substance at limits of specification, listed as 4
[11] = Table 6, micronized ridinilazole tetrahydrate, additional studies, listed as 4
[12] = Table 5, input drug substance at limits of specification, listed as 1
[13] = Table 6, micronized ridinilazole tetrahydrate, additional studies, listed as 1

Compound: c1cc(-c2nc3ccc(-c4ccc5nc(-c6ccncc6)[nH]c5c4)cc3[nH]2)ccn1 [ridinilazole, 2,2′-di(pyridin-4-yl)-1H,1′H-5,5′-bibenzo[d]imidazole]
- solubility [1]: very low
- rates of recurrent disease [2]: 14.3%

Compound: O.O.O.O.c1cc(-c2nc3ccc(-c4ccc5nc(-c6ccncc6)[nH]c5c4)cc3[nH]2)ccn1 [Batch 3, ridinilazole tetrahydrate]
- D10 [3, 5]: 1 μm
- D50 [3, 5]: 5 μm
- D90 [3, 5]: 11 μm
- D10 [3, 6]: 1.7 μm
- D50 [3, 6]: 7 μm
- D90 [3, 6]: 14 μm

Compound: O.O.O.O.c1cc(-c2nc3ccc(-c4ccc5nc(-c6ccncc6)[nH]c5c4)cc3[nH]2)ccn1 [Batch 5, ridinilazole tetrahydrate]
- D10 [3, 7]: 2.0 μm
- D50 [3, 7]: 7 μm
- D90 [3, 7]: 14 μm

Compound: O.O.O.O.c1cc(-c2nc3ccc(-c4ccc5nc(-c6ccncc6)[nH]c5c4)cc3[nH]2)ccn1 [Batch 2, ridinilazole tetrahydrate]
- D10 [3, 8]: 1 μm
- D50 [3, 8]: 5 μm
- D90 [3, 8]: 11 μm
- D10 [3, 9]: 1.1 μm
- D50 [3, 9]: 5 μm
- D90 [3, 9]: 11 μm

Compound: O.O.O.O.c1cc(-c2nc3ccc(-c4ccc5nc(-c6ccncc6)[nH]c5c4)cc3[nH]2)ccn1 [Batch 4, ridinilazole tetrahydrate]
- D10 [3, 10]: 1 μm
- D50 [3, 10]: 3 μm
- D90 [3, 10]: 10 μm
- D10 [3, 11]: 1.5 μm
- D50 [3, 11]: 6 μm
- D90 [3, 11]: 13 μm

Compound: c1cc(-c2nc3cc(-c4ccc5[nH]c(-c6ccncc6)nc5c4)ccc3[nH]2)ccn1 [Form A, ridinilazole tetrahydrate]
- crystal form conversion within the tablet [4]: No form conversion is detected

Compound: O.O.O.O.c1cc(-c2nc3ccc(-c4ccc5nc(-c6ccncc6)[nH]c5c4)cc3[nH]2)ccn1 [Batch 1, ridinilazole tetrahydrate]
- D10 [3, 12]: 2 μm
- D50 [3, 12]: 7 μm
- D90 [3, 12]: 20 μm
- D10 [3, 13]: 1.5 μm
- D50 [3, 13]: 6 μm
- D90 [3, 13]: 14 μm

Compound: CN[C@H](CC(C)C)C(=O)N[C@H]1C(=O)N[C@@H](CC(N)=O)C(=O)N[C@H]2C(=O)N[C@H]3C(=O)N[C@H](C(=O)N[C@H](C(=O)O)c4cc(O)cc(O)c4-c4cc3ccc4O)[C@H](O)c3ccc(c(Cl)c3)Oc3cc2cc(c3O[C@@H]2O[C@H](CO)[C@@H](O)[C@H](O)[C@H]2O[C@H]2C[C@](C)(N)[C@H](O)[C@H](C)O2)Oc2ccc(cc2Cl)[C@H]1O [vancomycin, reference compound]
- rates of recurrent disease [2]: 34.8%
